One data set concerns MDA-MB-468. The experiment in a line: Cytotoxicity against human MDA-MB-468 cells after 48 hrs by sulforhodamine B assay. Format: cell-based. To be noted: mda-mb-468, 48 h.
In data set [1] the test system is 786-0. The experiment in a line: Cytotoxicity against human 786-0 cells after 48 hrs by sulforhodamine B assay. Format: cell-based. To be noted: 786-0, 48 h. (Sulforhodamine B stains cellular protein and so reports cell mass.)
Data set [2] concerns the target Epithelial discoidin domain-containing receptor 1 (Homo sapiens) (UniProt Q08345). The experiment in a line: Binding affinity to human DDR1 at 10 uM incubated for 1 hr by kinase binding assay relative to untreated control.
The subject of a further data set is HT-29. The experiment in a line: Cytotoxicity against human HT-29 cells after 48 hrs by sulforhodamine B assay. The format is cell-based. The settings on record: ht-29, 48 h.
The test system of data set [3] is Tyrosine-protein kinase ABL1 (Homo sapiens), P00519 [F317L]. The experiment in a line: Binding affinity to human phosphorylated ABL1 F317L mutant at 10 uM incubated for 1 hr by kinase binding assay relative to untreated control.
The next data set deals with NCI-H322M. The experiment in a line: Growth inhibition of human NCI-H322M cells after 48 hrs by sulforhodamine B assay. Format: functional.
Data set [4] relates to Mast/stem cell growth factor receptor Kit (Homo sapiens), P10721 [D816H]. The data set can be described thus: Inhibition of human KIT D816H using gamma-33P-ATP as substrate assessed as enzyme functional activity at 1 uM by scintillation counting relative to untreated control. Set-up: scale not given: the % may be the effect or the level left.
For the next data set, the system named is SK-MEL-2. The data set can be described thus: Growth inhibition of human SK-MEL-2 cells after 48 hrs by sulforhodamine B assay. The settings on record: SK-MEL-2, 48 h. Format: functional.
For the next data set, the system named is U-251. The experiment in a line: Cytotoxicity against human U251 cells after 48 hrs by sulforhodamine B assay. Format: cell-based. The settings on record: u-251, 48 h.
The subject of another data set is MDA-MB-231. The experiment in a line: Cytotoxicity against human MDA-MB-231 cells after 48 hrs by sulforhodamine B assay. Format: cell-based. To be noted: mda-mb-231, 48 h.
A further data set concerns ACHN. The data set can be described thus: Cytotoxicity against human ACHN cells after 48 hrs by sulforhodamine B assay. Format: cell-based.
The next data set has as its system MCF7. The data set can be described thus: Cytotoxicity against human MCF7 cells after 48 hrs by sulforhodamine B assay. Format: cell-based. The settings on record: mcf7, 48 h.
For the next data set, the system named is BT-549. The experiment in a line: Cytotoxicity against human BT549 cells after 48 hrs by sulforhodamine B assay. To be noted: bt-549, 48 h. The format is cell-based.
Another data set relates to SF-539. The experiment in a line: Growth inhibition of human SF539 cells after 48 hrs by sulforhodamine B assay. Format: functional. The settings on record: SF-539, 48 h.
For another data set, the system named is KM12. The data set can be described thus: Growth inhibition of human KM12 cells after 48 hrs by sulforhodamine B assay. Format: functional. The settings on record: KM12, 48 h.
In a further data set the test system is MDA-MB-435. The data set can be described thus: Cytotoxicity against human MDA-MB-435 cells after 48 hrs by sulforhodamine B assay. Format: cell-based. The settings on record: mda-mb-435, 48 h.
The next data set relates to NCI-H460. The data set can be described thus: Cytotoxicity against human NCI-H460 cells after 48 hrs by sulforhodamine B assay. The format is cell-based. The settings on record: nci-h460, 48 h.
The next data set concerns NCI-H226. The data set can be described thus: Growth inhibition of human NCI-H226 cells after 48 hrs by sulforhodamine B assay. The format is functional. The settings on record: NCI-H226, 48 h.
The test system of another data set is OVCAR-3. The data set can be described thus: Growth inhibition of human OVCAR3 cells after 48 hrs by sulforhodamine B assay. Format: functional. To be noted: OVCAR-3, 48 h.
The subject of data set [5] is T1, Receptor-type tyrosine-protein kinase FLT3 (Homo sapiens), P36888 [K663Q].
T1 sequence (whole entry): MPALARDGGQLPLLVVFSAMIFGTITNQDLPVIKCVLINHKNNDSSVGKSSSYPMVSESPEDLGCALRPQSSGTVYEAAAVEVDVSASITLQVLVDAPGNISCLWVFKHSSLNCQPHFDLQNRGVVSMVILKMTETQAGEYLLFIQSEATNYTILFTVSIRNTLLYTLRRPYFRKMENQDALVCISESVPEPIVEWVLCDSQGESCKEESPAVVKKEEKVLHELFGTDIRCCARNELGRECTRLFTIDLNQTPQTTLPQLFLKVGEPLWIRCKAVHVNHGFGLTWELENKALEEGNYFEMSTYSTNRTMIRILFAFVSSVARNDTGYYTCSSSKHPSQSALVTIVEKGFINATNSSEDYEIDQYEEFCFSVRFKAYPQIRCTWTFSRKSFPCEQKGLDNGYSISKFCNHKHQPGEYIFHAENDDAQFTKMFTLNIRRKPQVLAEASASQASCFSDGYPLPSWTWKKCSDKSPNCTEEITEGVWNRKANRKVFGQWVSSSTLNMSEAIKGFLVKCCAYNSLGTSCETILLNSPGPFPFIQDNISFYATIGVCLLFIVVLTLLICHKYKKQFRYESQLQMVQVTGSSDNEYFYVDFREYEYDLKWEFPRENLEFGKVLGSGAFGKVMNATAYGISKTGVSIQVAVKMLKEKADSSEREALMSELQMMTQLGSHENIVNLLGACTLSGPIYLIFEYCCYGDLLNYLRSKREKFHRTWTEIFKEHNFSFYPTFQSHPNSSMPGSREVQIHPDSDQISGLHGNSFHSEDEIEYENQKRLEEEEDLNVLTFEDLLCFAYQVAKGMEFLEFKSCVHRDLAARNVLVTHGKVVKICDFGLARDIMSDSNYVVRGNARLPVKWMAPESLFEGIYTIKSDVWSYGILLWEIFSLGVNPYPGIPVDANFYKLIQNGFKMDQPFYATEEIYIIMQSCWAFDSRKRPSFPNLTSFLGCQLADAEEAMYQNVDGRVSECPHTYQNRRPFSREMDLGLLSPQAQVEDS
The data set can be described thus: Binding affinity to human FLT3 K663Q mutant at 10 uM incubated for 1 hr by kinase binding assay relative to untreated control.

Data set [6] has as its system 786-0. The data set can be described thus: Growth inhibition of human 786-0 cells after 48 hrs by sulforhodamine B assay. Format: functional. To be noted: 786-0, 48 h.
The test system of a further data set is SW-620. The data set can be described thus: Cytotoxicity against human SW620 cells after 48 hrs by sulforhodamine B assay. Format: cell-based. To be noted: sw-620, 48 h.

Sequence of Mast/stem cell growth factor receptor Kit (Homo sapiens), P10721 [D816H] (P10721 whole entry D816H): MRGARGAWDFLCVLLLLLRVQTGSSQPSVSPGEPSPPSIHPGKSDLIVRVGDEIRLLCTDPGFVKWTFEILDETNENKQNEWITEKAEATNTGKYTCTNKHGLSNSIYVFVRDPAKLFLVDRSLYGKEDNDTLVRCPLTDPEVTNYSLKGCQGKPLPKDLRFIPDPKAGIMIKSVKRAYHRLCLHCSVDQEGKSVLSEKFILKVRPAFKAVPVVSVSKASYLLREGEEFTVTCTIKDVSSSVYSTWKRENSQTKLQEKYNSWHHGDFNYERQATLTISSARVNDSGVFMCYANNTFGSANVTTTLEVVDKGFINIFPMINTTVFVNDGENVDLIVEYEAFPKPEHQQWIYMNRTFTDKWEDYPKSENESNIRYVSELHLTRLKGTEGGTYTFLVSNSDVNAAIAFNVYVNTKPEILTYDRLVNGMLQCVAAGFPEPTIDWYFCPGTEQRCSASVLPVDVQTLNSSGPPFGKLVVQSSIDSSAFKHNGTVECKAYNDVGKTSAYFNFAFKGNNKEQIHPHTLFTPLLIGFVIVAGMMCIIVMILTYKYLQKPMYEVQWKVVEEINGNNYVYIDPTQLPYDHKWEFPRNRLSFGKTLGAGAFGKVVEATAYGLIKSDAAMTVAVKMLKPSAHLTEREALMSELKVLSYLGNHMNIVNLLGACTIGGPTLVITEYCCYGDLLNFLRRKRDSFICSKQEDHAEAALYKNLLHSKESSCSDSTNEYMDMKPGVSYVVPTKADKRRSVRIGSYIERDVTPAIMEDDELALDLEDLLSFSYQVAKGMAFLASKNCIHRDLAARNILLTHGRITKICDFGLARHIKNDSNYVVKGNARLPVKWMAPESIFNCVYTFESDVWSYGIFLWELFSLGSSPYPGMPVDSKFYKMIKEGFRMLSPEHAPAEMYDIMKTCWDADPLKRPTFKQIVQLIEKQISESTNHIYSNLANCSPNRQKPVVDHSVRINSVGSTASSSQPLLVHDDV
Sequence of Tyrosine-protein kinase ABL1 (Homo sapiens), P00519 [F317L] (P00519 whole entry F317L): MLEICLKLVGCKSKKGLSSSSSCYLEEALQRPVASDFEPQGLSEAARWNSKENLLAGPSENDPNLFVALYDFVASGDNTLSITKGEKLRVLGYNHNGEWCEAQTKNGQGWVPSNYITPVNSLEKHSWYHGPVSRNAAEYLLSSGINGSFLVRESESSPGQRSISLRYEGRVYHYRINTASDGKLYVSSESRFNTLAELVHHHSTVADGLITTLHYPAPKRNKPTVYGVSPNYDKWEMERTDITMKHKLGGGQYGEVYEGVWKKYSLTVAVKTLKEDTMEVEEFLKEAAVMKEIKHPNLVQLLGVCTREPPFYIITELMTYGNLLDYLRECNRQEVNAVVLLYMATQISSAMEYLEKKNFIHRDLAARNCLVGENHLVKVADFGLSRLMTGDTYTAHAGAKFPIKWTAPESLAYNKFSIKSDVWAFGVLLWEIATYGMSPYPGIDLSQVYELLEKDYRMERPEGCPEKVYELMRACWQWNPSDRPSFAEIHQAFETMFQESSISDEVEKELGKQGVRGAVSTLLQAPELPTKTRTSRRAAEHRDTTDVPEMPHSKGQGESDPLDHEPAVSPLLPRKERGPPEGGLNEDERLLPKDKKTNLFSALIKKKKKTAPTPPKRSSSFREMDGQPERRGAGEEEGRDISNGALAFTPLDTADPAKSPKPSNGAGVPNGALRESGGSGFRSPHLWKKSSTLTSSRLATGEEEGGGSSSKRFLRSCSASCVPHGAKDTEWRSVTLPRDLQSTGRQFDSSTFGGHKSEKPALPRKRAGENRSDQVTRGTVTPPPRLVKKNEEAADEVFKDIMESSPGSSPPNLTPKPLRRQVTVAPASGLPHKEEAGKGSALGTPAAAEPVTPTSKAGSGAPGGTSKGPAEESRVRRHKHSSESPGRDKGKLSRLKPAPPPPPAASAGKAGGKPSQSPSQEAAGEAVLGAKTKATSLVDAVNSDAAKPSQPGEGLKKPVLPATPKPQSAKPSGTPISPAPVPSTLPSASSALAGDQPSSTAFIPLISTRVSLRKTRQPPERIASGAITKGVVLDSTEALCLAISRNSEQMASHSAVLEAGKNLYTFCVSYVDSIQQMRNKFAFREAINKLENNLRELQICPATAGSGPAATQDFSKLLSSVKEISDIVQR
Sequence of Epithelial discoidin domain-containing receptor 1 (Homo sapiens) (Q08345 whole entry, the tested form may be a part): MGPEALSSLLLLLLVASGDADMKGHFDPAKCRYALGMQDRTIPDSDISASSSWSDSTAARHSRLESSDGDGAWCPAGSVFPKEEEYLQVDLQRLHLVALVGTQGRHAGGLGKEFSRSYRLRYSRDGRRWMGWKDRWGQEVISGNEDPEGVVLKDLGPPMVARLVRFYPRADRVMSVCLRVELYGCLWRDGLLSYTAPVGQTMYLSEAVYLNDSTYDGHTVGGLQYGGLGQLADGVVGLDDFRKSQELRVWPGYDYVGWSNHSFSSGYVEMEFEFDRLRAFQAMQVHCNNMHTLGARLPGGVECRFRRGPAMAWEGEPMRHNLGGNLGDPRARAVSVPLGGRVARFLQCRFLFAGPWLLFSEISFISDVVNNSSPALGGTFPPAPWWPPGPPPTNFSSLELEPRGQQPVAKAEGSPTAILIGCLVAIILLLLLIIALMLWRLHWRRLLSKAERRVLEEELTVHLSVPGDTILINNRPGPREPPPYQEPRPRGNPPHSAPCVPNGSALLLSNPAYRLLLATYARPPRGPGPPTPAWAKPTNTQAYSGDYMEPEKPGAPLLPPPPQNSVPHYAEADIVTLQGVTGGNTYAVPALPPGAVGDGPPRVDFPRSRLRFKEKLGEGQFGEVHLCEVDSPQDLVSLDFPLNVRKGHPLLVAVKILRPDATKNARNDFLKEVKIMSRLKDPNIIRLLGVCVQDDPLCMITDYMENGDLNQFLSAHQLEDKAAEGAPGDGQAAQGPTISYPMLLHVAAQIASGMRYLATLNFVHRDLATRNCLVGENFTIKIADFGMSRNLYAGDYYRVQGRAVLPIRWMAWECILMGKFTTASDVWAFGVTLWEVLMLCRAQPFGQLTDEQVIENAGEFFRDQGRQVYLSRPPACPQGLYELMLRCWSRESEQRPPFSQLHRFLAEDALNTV

A word on the LC50: it is the concentration lethal to half of the exposed cells or organisms. By TGI is commonly meant the concentration at which net growth stops. Consider `c1ccc(Cc2cnc(N3CCN(c4ncnc5ccccc45)CC3)nc2)cc1`, for which the LC50 was above 100 µM with MDA-MB-468; above 100 µM with 786-0 [1]; 79.2 µM in the data set with HT-29; 54.1 µM with U-251; 92.8 µM in the data set with MDA-MB-231; above 100 µM in the data set with ACHN. Besides, the LC50 in the data set on MCF7 was above 100 µM; with BT-549, 43 µM; with MDA-MB-435, 91.4 µM; in the data set with NCI-H460 it was 55 µM; in the data set with SW-620, 59.9 µM. Also, the Activity in [2] is 47%; in [3] it was above 50%; in data set [4], 30%; in data set [5], 4%. Further, the TGI is above 100 µM in the data set with NCI-H322M; 35.8 µM in the data set on SK-MEL-2; 28.5 µM with SF-539; 25.1 µM in the data set with KM12; 48.4 µM in the data set on NCI-H226; 23.2 µM with OVCAR-3. Besides, in the data set with 786-0 [6], the TGI came to 36.7 µM.
As to `CCc1cnc(N2CCN(C(=O)c3ccc(CNc4ncnc5ccccc45)cc3)CC2)nc1`, the LC50 in the data set with MDA-MB-468, with 786-0 [1], in the data set on HT-29, with U-251, in the data set on MDA-MB-231 and in the data set on ACHN was above 100 µM in each case. For the same molecule, the LC50 in the data set with MCF7, with BT-549, with MDA-MB-435, in the data set with NCI-H460 and in the data set with SW-620 was above 100 µM in each case. Further, the Activity in data set [2] was above 50%; in data set [3] it was 6.8%; in data set [4] it was 100%; in [5], above 50%. In addition, the TGI is above 100 µM with NCI-H322M; above 100 µM in the data set on SK-MEL-2; above 100 µM in the data set on SF-539; 24.3 µM in the data set on KM12; above 100 µM with NCI-H226; above 100 µM in the data set on OVCAR-3. The molecule also yielded a TGI in the data set on 786-0 [6] of 54.8 µM.
In the case of `O=C(c1cccc(Nc2ncnc3ccccc23)c1)N1CCN(c2ncc(Cc3ccccc3)cn2)CC1`, the LC50 in the data set with MDA-MB-468, in the data set with 786-0 [1], in the data set with HT-29, in the data set on U-251, in the data set on MDA-MB-231 and in the data set on ACHN was above 100 µM throughout. Further, the LC50 in the data set with MCF7 is 5.62 µM; with BT-549 it was 5.37 µM; with MDA-MB-435, 4.57 µM; in the data set with NCI-H460, above 100 µM; with SW-620, above 100 µM. The Activity was 28% in data set [2], above 50% in [3], 100% in data set [4] and above 50% in data set [5]. In addition, the TGI in the data set with NCI-H322M is 4.79 µM; in the data set with SK-MEL-2, 2.69 µM; in the data set with SF-539, 4.9 µM; in the data set on KM12, 2.4 µM; in the data set with NCI-H226, 2.09 µM; in the data set on OVCAR-3, 8.13 µM. In the data set on 786-0 [6], this molecule came in with a TGI of 6.61 µM.
